CLint scaled, half-life and IC50 data for 11 compounds are collected here from patent US10751339B2, “Substituted aminopyrimidine compounds and methods of use” (SUNSHINE LAKE PHARMA CO., LTD., priority 2018, dated 2020).

Data set [1] can be described thus: Compound stability in human liver microsomes. The data set is classed as in vitro ADME. Particulars: pH 7.4; for CLint scaled at 5 μM: liver microsomes, in vivo CLint extrapolated from human liver microsome incubation; for half-life at 5 μM: human liver microsomes 0.5 mg protein/mL, compound 5 μM, NADPH, 37° C., read-out: Human T1/2. As for the experimental part:
(§1) Human or rat liver microsomes incubations were conducted in duplicate in polypropylene tubes. The typical incubation mixtures consisted of human or rat liver microsomes (0.5 mg protein/mL), compounds of interest (5 μM) and NADPH (1.0 mM) in a total volume of 200 μL potassium phosphate buffer (PBS, 100 mM, pH 7.4). Compounds were dissolved in DMSO and diluted with PBS such that the final concentration of DMSO was 0.05%. The enzymatic reactions were commenced with the addition of protein after a 3-min preincubation and incubated in a water bath open to the air at 37° C. Reactions were terminated at various time points (0, 5, 10, 15, 30, 60 min) by adding equal volume of ice-cold acetonitrile. The samples were stored at −80° C. until LC/MS/MS assays.
(§2) The concentrations of compounds in the incubation mixtures of human or rat liver microsomes were determined by a LC/MS/MS method. The ranges of the linearity in the concentration range were determined for each tested compounds.
(§3) A parallel incubation was performed using denatured microsomes as the negative control, and reactions were terminated at various time points (0, 15, 60 min) after incubation at 37° C.
(§4) Dextromethorphan (70 μM) was selected as the positive control, and reactions were terminated at various time points (0, 5, 10, 15, 30, 60 min) after incubation at 37° C. Both positive and negative control samples were included in each assay to ensure the integrity of the microsomal incubation system.
(§5) The concentrations of compounds in human or rat liver microsome incubations were plotted as a percentage of the relevant zero time point control for each reaction.

For the next data set, the target named is PI3K (p110β/p85α) (h) (Homo sapiens (Human), UniProt P42338). Kind of data set: PI3K (p110β/p85α) (h) non-radioactive HTRF kinase assay. The format is biochemical. On the procedure:
(§6) PI3K (p110β/p85α) (h) is incubated in assay buffer containing 10 μM phosphatidylinositol-4,5-bisphosphate and MgATP (concentration as required). The reaction is initiated by the addition of the MgATP mix. After incubation for 30 minutes at room temperature, the reaction is stopped by the addition of stop solution containing EDTA and biotinylated phosphatidylinositol-3,4,5-trisphosphate. Finally, detection buffer is added, which contains europium-labelled anti-GST monoclonal antibody, GST-tagged GRP1 PH domain and streptavidin-allophycocyanin. The plate is then read in timeresolved fluorescence mode and the homogenous time-resolved fluorescence (HTRF) signal is determined according to the formula HTRF=10000×(Em665 nm/Em620 nm).
(§7) The kinase assays described herein were performed at Millipore UK Ltd, Dundee Technology Park, Dundee DD2 1SW, UK.

The target in another data set is PI3K (p120γ) (h) (Homo sapiens (Human), UniProt P48736). Kind of data set: PI3K (p120γ) (h) non-radioactive HTRF kinase assay. The data set is classed as biochemical. On the procedure: as §6, with “(p120γ)” for “(p110β/p85α)”, “phosphatidylinositol-4, 5-bisphosphate” for “phosphatidylinositol-4,5-bisphosphate”
Chain of PI3K (p120γ) (h) (P48736 whole entry): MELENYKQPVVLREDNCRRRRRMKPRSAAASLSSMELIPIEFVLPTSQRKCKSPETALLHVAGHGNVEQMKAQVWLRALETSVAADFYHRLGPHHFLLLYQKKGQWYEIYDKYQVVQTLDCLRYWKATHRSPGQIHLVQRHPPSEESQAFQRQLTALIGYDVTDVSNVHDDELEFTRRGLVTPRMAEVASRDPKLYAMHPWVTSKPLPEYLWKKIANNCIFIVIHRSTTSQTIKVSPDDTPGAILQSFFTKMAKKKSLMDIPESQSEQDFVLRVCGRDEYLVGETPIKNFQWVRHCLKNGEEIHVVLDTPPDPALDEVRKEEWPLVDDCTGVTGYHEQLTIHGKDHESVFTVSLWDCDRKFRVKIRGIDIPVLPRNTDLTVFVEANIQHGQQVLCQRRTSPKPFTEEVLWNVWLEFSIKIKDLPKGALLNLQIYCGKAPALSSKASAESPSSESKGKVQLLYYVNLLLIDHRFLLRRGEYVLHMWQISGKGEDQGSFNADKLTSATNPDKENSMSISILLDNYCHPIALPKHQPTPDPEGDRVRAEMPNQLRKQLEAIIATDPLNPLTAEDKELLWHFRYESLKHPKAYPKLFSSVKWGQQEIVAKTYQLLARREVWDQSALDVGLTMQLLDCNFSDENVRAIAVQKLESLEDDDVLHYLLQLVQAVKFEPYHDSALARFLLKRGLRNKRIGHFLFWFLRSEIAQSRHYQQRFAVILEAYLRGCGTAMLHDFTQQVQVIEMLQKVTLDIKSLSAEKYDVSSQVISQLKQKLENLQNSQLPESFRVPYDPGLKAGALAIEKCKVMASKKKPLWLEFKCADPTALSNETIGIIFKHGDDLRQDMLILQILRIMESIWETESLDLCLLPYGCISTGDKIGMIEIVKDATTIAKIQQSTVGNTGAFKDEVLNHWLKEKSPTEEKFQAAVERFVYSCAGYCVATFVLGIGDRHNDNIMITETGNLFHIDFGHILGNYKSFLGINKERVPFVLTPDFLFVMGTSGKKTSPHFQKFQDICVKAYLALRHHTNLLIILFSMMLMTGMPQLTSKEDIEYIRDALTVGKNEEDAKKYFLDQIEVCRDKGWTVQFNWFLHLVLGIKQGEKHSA
as §7

The target of the next data set is PI3K (p110α/p85α) (h) (Homo sapiens (Human), UniProt P42336). The data set is described as follows: PI3K (p110α/p85α) (h) non-radioactive HTRF kinase assay. The format is biochemical. On the procedure: as §6, with “(p110α/p85α)” for “(p110β/p85α)”, “phosphatidylinositol 4,5-bisphosphate” for “phosphatidylinositol-4,5-bisphosphate”, “ATP solution.” for “MgATP mix.”, “streptavidin allophycocyanin.” for “streptavidin-allophycocyanin.”
Chain of PI3K (p110α/p85α) (h) (P42336 whole entry): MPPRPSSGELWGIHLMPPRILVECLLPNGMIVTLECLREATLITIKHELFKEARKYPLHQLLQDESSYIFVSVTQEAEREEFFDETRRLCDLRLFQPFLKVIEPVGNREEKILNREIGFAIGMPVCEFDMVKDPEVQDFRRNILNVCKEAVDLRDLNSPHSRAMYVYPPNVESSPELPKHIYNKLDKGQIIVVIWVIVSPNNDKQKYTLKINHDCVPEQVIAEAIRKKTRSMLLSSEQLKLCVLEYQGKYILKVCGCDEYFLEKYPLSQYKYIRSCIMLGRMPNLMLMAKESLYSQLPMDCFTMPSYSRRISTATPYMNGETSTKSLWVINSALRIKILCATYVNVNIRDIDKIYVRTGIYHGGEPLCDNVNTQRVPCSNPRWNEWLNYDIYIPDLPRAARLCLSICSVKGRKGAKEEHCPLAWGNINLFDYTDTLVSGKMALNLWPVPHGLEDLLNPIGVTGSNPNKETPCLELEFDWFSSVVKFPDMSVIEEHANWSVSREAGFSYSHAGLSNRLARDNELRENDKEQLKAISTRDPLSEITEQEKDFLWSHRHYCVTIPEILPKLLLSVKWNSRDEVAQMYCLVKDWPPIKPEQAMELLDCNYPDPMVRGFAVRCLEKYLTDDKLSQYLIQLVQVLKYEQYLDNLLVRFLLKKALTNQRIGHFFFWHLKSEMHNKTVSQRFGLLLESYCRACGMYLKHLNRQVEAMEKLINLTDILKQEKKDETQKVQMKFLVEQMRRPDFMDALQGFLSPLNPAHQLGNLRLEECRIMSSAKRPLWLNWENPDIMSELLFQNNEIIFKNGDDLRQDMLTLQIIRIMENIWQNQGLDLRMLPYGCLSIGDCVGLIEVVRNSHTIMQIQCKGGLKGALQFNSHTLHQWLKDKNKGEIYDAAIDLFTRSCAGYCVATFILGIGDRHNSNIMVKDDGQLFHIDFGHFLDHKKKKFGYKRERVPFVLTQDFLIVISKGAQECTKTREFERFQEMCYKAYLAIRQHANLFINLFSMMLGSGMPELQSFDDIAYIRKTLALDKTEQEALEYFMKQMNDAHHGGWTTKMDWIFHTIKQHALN
Chain of PI3K (p110α/p85α) (h) (P27986 whole entry partner): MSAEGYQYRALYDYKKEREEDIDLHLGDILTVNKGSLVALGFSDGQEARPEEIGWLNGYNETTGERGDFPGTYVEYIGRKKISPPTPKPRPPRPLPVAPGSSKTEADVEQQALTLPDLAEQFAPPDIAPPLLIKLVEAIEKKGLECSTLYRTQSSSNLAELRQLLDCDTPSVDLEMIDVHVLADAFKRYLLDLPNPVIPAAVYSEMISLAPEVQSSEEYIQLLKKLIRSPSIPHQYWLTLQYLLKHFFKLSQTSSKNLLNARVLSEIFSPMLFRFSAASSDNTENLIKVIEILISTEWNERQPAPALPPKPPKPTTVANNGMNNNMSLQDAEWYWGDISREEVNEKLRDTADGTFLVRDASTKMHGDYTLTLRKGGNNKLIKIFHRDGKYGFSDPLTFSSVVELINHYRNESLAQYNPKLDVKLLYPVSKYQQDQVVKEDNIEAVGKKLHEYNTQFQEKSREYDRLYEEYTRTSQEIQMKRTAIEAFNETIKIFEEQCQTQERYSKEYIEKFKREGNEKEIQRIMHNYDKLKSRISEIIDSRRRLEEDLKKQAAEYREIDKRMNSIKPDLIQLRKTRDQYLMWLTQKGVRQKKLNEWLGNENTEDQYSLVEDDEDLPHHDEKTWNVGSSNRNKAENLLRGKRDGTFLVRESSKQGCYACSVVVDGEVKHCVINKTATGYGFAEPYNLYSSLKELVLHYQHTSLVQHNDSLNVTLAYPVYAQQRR
as §7
(In general: TR-FRET usually uses a lanthanide donor and a delayed reading to cut background.)

The target in a further data set is PI3K (p110δ/p85α) (h) (Homo sapiens (Human), UniProt O00329). The data set is described as follows: PI3K (p110δ/p85α) (h) non-radioactive HTRF kinase assay. The format is biochemical. As for the experimental part:
as §6, with “(p110δ/p85α)” for “(p110β/p85α)”, “phosphatidylinositol-4, 5-bisphosphate” for “phosphatidylinositol-4,5-bisphosphate”
as §7

The nature of data set [2]: Compound stability in rat liver microsomes. The data set is classed as in vitro ADME. The note with it: pH 7.4; for CLint scaled at 5 μM: liver microsomes, in vivo CLint extrapolated from rat liver microsome incubation; for half-life at 5 μM: rat liver microsomes 0.5 mg protein/mL, compound 5 μM, NADPH, 37° C., read-out: Rat T1/2. As for the experimental part:
as §1, §2, §3, §4, §5

SMILES strings stand for the structures. pIC50: −log10 of the molar value.

Chain of PI3K (p110β/p85α) (h) (P42338 whole entry, the tested form may be a part): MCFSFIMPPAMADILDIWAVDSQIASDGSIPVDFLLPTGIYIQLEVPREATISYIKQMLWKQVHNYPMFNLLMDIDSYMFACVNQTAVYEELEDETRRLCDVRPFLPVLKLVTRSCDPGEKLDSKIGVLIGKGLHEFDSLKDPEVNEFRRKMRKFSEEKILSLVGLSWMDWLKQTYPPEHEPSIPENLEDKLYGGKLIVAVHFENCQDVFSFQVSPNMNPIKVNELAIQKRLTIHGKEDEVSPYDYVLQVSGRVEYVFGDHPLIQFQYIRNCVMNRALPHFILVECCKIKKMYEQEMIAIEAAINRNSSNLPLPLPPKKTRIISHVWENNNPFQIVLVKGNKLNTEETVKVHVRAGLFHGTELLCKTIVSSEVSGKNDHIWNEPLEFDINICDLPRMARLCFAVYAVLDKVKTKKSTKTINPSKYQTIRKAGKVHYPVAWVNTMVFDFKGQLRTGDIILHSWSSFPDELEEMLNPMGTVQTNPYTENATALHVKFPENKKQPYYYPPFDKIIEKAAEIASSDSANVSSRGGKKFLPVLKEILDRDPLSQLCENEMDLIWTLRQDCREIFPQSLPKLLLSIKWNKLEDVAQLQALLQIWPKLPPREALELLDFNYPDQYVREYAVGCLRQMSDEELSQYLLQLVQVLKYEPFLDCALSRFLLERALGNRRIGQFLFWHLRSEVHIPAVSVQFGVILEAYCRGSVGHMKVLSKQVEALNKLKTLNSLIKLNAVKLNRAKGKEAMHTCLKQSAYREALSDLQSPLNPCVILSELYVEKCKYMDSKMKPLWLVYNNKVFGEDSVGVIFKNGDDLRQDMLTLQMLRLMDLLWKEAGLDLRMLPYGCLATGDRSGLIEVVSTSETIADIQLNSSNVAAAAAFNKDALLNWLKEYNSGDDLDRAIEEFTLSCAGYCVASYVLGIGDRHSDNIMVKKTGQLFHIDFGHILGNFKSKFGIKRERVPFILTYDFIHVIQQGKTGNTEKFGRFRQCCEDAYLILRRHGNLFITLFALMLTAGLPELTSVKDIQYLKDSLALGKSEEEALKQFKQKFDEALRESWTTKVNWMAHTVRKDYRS
Chain of PI3K (p110β/p85α) (h) (P27986 whole entry partner, the tested form may be a part): as the sequence (P27986 whole entry partner) above
Chain of PI3K (p110δ/p85α) (h) (O00329 whole entry): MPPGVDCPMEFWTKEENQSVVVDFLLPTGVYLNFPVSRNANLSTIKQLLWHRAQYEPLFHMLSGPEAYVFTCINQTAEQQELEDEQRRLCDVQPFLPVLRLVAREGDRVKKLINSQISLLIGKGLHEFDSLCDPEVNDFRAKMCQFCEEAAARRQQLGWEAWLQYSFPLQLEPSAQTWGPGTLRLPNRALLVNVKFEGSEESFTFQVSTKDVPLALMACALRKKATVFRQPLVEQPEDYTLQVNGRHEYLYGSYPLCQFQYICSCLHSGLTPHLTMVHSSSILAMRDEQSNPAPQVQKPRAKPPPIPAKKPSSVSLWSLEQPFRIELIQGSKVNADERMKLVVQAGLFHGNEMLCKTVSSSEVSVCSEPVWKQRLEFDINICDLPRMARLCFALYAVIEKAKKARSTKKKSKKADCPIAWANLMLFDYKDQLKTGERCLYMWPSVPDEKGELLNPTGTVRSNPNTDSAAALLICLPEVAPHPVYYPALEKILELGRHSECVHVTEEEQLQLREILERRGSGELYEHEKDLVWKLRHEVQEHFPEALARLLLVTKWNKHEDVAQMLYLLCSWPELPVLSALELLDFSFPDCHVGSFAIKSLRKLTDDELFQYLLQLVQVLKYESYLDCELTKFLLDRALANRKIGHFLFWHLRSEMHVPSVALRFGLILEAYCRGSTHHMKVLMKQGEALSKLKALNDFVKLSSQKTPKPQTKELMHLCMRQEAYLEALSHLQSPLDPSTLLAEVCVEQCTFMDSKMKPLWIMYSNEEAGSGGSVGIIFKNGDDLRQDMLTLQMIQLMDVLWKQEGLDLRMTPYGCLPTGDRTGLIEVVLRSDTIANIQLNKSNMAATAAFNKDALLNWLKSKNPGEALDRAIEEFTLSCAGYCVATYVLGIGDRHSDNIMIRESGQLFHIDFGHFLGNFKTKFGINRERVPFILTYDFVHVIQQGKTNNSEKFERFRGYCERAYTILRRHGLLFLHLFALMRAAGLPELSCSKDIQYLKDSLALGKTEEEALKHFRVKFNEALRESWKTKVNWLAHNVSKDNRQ
Chain of PI3K (p110δ/p85α) (h) (P27986 whole entry partner): as the sequence (P27986 whole entry partner) above

A word on the CLint scaled: it is the rate of metabolic loss divided by the concentration. A word on the pIC50: it is −log10 of the IC50, conventionally taken in molar units. For the compound `Cc1noc(-c2c(N)ncnc2N[C@@H](C)c2nc3cccc(C#CC(C)O)c3c(=O)n2-c2ccccc2)n1` (stereo partly drawn) [Example 5, 2-((S)-1-((6-amino-5-(3-meth-1,2,4-oxadiazol-5-1)pyrimidin-4-1)amino)ethyl)-5-(3-hydroxybut-1-yn-1-yl)-3-phenylquinazolin-4(3H)-one], the CLint scaled at 5 μM in data set [1] was 20.8 mL/min/kg; in data set [2], 28 mL/min/kg. The half-life at 5 μM in data set [1] worked out at 83.7 min; in data set [2], 88.7 min. The pIC50 at PI3K (p110β/p85α) (h) is 5.73; at PI3K (p120γ) (h) it was 6.29; on PI3K (p110α/p85α) (h), 5.62; at PI3K (p110δ/p85α) (h) it was 7.77.

For the compound `CC#Cc1cccc2nc([C@H](C)Nc3ncnc(N)c3-c3nc(C)no3)n(-c3ccccc3)c(=O)c12` [Example 9, (S)-2-(1-((6-amino-5-(3-methyl-1,2,4-oxadiazol-5-yl)pyrimidin-4-yl)amino)ethyl)-3-phenyl-5-(prop-1-yn-1-yl)quinazolin-4(3H)-one], the CLint scaled at 5 μM in data set [1] is 80.5 mL/min/kg; in data set [2], 85.2 mL/min/kg. Also, the half-life at 5 μM in data set [1] came to 21.6 min; in data set [2] it was 29.2 min. In addition, the pIC50 at PI3K (p110β/p85α) (h) is 6.82; on PI3K (p120γ) (h) it was 7.33; on PI3K (p110α/p85α) (h), 6.34; on PI3K (p110δ/p85α) (h), 8.70.

In the case of `CC#Cc1cccc2nc([C@H](C)Nc3ncnc(N)c3-c3nnc(C)o3)n(-c3ccccc3)c(=O)c12` [Example 10, (S)-2-(1-((6-amino-5-(5-methyl-1,3,4-oxadiazol-2-yl)pyrimidin-4-yl)amino)ethyl)-3-phenyl-5-(prop-1-yn-1-yl)quinazolin-4(3H)-one], the pIC50 on PI3K (p110β/p85α) (h) is 6.26; at PI3K (p120γ) (h), 6.47; on PI3K (p110α/p85α) (h), 5.55; at PI3K (p110δ/p85α) (h) it was 8.22.

With `CC#Cc1cccc2nc([C@H](CC)Nc3ncnc(N)c3-c3nc(C)no3)n(-c3ccccc3)c(=O)c12` [Example 14, (S)-2-(1-((6-amino-5-(3-methyl-1,2,4-oxadiazol-5-yl)pyrimidin-4-yl)amino)propyl)-3-phenyl-5-(prop-1-yn-1-yl)quinazolin-4(3H)-one], the CLint scaled at 5 μM in data set [1] was 150 mL/min/kg; in data set [2], 213 mL/min/kg. For the same compound, the half-life at 5 μM was 11.6 min in data set [1] and 11.7 min in data set [2]. In addition, the pIC50 on PI3K (p110β/p85α) (h) was 6.24; on PI3K (p120γ) (h), 7.82; at PI3K (p110α/p85α) (h) it was 5.72; on PI3K (p110δ/p85α) (h) it was 8.10.

For `CC#Cc1cccc2nc([C@H](CC)Nc3ncnc(N)c3-c3nnc(C)o3)n(-c3ccccc3)c(=O)c12` [Example 15, (S)-2-(1-((6-amino-5-(5-methyl-1,3,4-oxadiazol-2-yl)pyrimidin-4-yl)amino)propyl)-3-phenyl-5-(prop-1-yn-1-yl)quinazolin-4(3H)-one], the pIC50 at PI3K (p110β/p85α) (h) is less than 5.52; on PI3K (p120γ) (h), 6.15; on PI3K (p110α/p85α) (h), less than 5.52; on PI3K (p110δ/p85α) (h), 7.57.

As for `CC[C@H](Nc1ncnc(N)c1-c1nc(C)no1)c1nc2cccc(C#CCO)c2c(=O)n1C1CC1` [Example 29, (S)-2-(1-((6-amino-5-(3-methyl-1,2,4-oxadiazol-5-yl)pyrimidin-4-yl)amino)propyl)-3-cyclopropyl-5-(3-hydroxyprop-1-yn-1-yl)quinazolin-4(3H)-one], the CLint scaled at 5 μM is 72.2 mL/min/kg in data set [1] and 88.8 mL/min/kg in data set [2]. Moreover, the half-life at 5 μM in data set [1] was 24.1 min; in data set [2] it was 28 min. Besides, the negative logarithm of the IC50 (pIC50) on PI3K (p110β/p85α) (h) is 6.92; at PI3K (p120γ) (h), 7.11; on PI3K (p110α/p85α) (h), less than 5.52; on PI3K (p110δ/p85α) (h), 7.62.

Take `Cc1noc(-c2c(N)ncnc2N[C@@H](C)c2cc3cccc(C#CCO)c3c(=O)n2C2CC2)n1` [Example 33, (S)-3-(1-((6-amino-5-(3-methyl-1,2,4-oxadiazol-5-yl)-pyrimidin-4-yl)amino)ethyl)-2-cyclopropyl-8-(3-hydroxyprop-1-yn-1-yl)-isoquinolin-1 (2H)-one]: the pIC50 at PI3K (p110β/p85α) (h) was 6.98; on PI3K (p120γ) (h), 6.93; at PI3K (p110α/p85α) (h), 6.00; at PI3K (p110δ/p85α) (h) it was 7.96.

Consider `CC[C@H](Nc1ncnc(N)c1-c1nc(C)no1)c1nc2cccc(C#CCO)c2c(=O)n1-c1ccccc1` [Example 36, (S)-2-(1-((6-amino-5-(3-methyl-1,2,4-oxadiazol-5-yl)pyrimidin-4-yl)amino)propyl)-5-(3-hydroxyprop-1-yn-1-yl)-3-phenylquinazolin-4(3H)-one], for which the figures for the CLint scaled at 5 μM in data set [1] and in data set [2] were 98.3 mL/min/kg and 138 mL/min/kg, respectively. The half-life at 5 μM came to 17.7 min in data set [1] and 18 min in data set [2]. Besides, the negative logarithm of the IC50 (pIC50) at PI3K (p110β/p85α) (h) was 6.40; on PI3K (p120γ) (h), 7.52; at PI3K (p110α/p85α) (h) it was 5.57; on PI3K (p110δ/p85α) (h), 8.00.

For `CC[C@H](Nc1ncnc(N)c1-c1nnc(C)o1)c1nc2cccc(C#CCO)c2c(=O)n1-c1ccccc1` [Example 37, (S)-2-(1-((6-amino-5-(5-methyl-1,3,4-oxadiazol-2-yl)pyrimidin-4-yl)amino)propyl)-5-(3-hydroxyprop-1-yn-1-yl)-3-phenylquinazolin-4(3H)-one], the values for the CLint scaled at 5 μM in data set [1] and in data set [2] were 39.8 mL/min/kg and 113 mL/min/kg, respectively. For the same compound, the half-life at 5 μM worked out at 43.7 min in data set [1] and 22 min in data set [2]. Also, the pIC50 at PI3K (p110β/p85α) (h) is less than 5.52; at PI3K (p120γ) (h), 6.36; on PI3K (p110α/p85α) (h) it was less than 5.52; on PI3K (p110δ/p85α) (h), 7.35.

As for `Cc1noc(-c2c(N)ncnc2N[C@@H](C)c2cc3cccc(C#CCO)c3c(=O)n2-c2ccccc2)n1` [Example 40, (S)-3-(1-((6-amino-5-(3-methyl-1,2,4-oxadiazol-5-yl)pyrimidin-4-yl)amino)ethyl)-8-(3-hydroxyprop-1-yn-1-yl)-2-phenylisoquinolin-1 (2H)-one], the pIC50 is 6.81 on PI3K (p110β/p85α) (h), 7.36 at PI3K (p120γ) (h), 6.15 on PI3K (p110α/p85α) (h) and 8.30 at PI3K (p110δ/p85α) (h).

Consider `Cc1noc(-c2c(N)ncnc2N[C@@H](C)c2nc3ccc(F)c(C#CCO)c3c(=O)n2-c2ccccc2)n1` [Example 42, (S)-2-(1-((6-amino-5-(3-methyl-1,2,4-oxadiazol-5-yl)pyrimidin-4-yl)amino)ethyl)-6-fluoro-5-(3-hydroxyprop-1-yn-1-yl)-3-phenylquinazolin-4(3H)-one], for which the negative logarithm of the IC50 (pIC50) at PI3K (p110β/p85α) (h) is 5.80; at PI3K (p120γ) (h), 6.46; at PI3K (p110α/p85α) (h), less than 5.52; on PI3K (p110δ/p85α) (h), 7.77.
